Measured values as given in patent US20250136610A1, “CRYSTALLINE FORMS OF TRILACICLIB AND TRILACICLIB SALTS” (TEVA PHARMACEUTICALS INTERNATIONAL GMBH, priority 2022, published 2025).
Where a name gives a salt, the structure may show the parent alone.

How the values were obtained:
Assay type in all cases: physicochemical
[1] = Stability under all tested stress conditions (summary statement); conditions: strong grinding, pressure of 2 tons, up to 100% RH for 7 days, up to 100° C.
[2] = Thermal stability (heating up to 100° C., XRPD); conditions: heating 100° C., 30 minutes
Experimental: (§1) X-ray diffraction was performed on X-Ray powder diffractometer: Bruker D8 Advance; CuKα radiation (λ=1.5418 Å); Lynx eye detector; laboratory temperature 22-25° C.; PMMA specimen holder ring with silicon low background. Prior to analysis, the samples were gently ground by means of mortar and pestle in order to obtain a fine powder. The ground sample was adjusted into a cavity of the sample holder and the surface of the sample was smoothed by means of a cover glass.
(§2) • Scan range: 2-40 degrees 2-theta; • Scan mode: continuous; • Step size: 0.05 degrees; • Time per step: 0.5 s; • Sample spin: 30 rpm; • Sample holder: PMMA specimen holder ring with silicon low background. • All X-Ray Powder Diffraction peak values are calibrated with regard to standard silicon spiking in the sample. ssNMR Method:
A sample of Trilaciclib citrate Form TCT3 was subjected to heating up to 100° C. for 30 minutes.

[3] = Grinding experiments (strong grinding and solvent drop grinding, XRPD); conditions: 2 minutes
Experimental: as §1, §2
Samples of Trilaciclib citrate Form TCT3 were subjected to strong grinding, and to solvent drop grinding in isopropanol, ethanol and water. Grinding was carried out on the samples alone, or in the presence of ethanol or water. In these experiments, about 20 mg of the sample is placed in a mortar and ground with a pestle for 2 minutes. The solvent, when used, as added to the crystalline material before grinding, in a volume of 10 microliters.

[4] = Storage stability at different relative humidities and temperatures, months (XRPD)
Experimental: as §1, §2
Samples of Trilaciclib citrate Form TCT3 were subjected to conditions of different relative humidities at different temperatures. XRPD analysis was performed on the samples after 2 months.
Form TCT3 of Trilaciclib citrate was also found to be stable for at least 2 months at 2-8° C. Moreover, Form TCT3 is stable for at least 3 months at room temperature and humidity.

## CN1CCN(c2ccc(Nc3ncc4cc5n(c4n3)C3(CCCCC3)CNC5=O)nc2)CC1 [Trilaciclib citrate Form TCT3, Trilaciclib citrate salt]
[1]
  stability under stress conditions: stable under all tested stress conditions
[2]
  Result (XRPD analysis): No polymorphic conversion
[3]; solvent-drop grinding (ethanol), 10 microliters
  XRPD analysis results: No polymorphic conversion
[3]; solvent-drop grinding (isopropanol), 10 microliters
  XRPD analysis results: No polymorphic conversion
[3]; solvent-drop grinding (water), 10 microliters
  XRPD analysis results: No polymorphic conversion
[3]; strong grinding, no solvent
  XRPD analysis results: No polymorphic conversion
[4]; at 2-8° C.
  time for which the form is stable: at least 2 months
[4]; at room temperature and humidity
  time for which the form is stable: at least 3 months
